Experimental data taken from paper PMC7026418, “The kinase polypharmacology landscape of clinical PARP inhibitors” (Scientific Reports, 2020).
Read-outs that look alike come from different tables or passages of the source.

What was measured:
Assay in all cases: biochemical
Set-up in all cases: DiscoveRx KINOMEscan active site-directed competition binding; percent of control kinase bound to immobilised ligand
[1] = molecular target: T1, ABL1(M351T)-phosphorylated (Homo sapiens, UniProt P00519, M351T)
T1 construct: phosphorylated

ADCK3 = molecular target: T2, ADCK3 (Homo sapiens, UniProt Q8NI60)
T2 construct: gene COQ8A

BRAF(V600E) = BRAF(V600E) (Homo sapiens, UniProt P15056, V600E)
EGFR(G719S) = EGFR(G719S) (Homo sapiens, UniProt P00533, G719S)
IKK-beta = molecular target: T3, IKK-beta (Homo sapiens, UniProt O14920)
T3 construct: gene IKBKB
T3 sequence (O14920 1-756): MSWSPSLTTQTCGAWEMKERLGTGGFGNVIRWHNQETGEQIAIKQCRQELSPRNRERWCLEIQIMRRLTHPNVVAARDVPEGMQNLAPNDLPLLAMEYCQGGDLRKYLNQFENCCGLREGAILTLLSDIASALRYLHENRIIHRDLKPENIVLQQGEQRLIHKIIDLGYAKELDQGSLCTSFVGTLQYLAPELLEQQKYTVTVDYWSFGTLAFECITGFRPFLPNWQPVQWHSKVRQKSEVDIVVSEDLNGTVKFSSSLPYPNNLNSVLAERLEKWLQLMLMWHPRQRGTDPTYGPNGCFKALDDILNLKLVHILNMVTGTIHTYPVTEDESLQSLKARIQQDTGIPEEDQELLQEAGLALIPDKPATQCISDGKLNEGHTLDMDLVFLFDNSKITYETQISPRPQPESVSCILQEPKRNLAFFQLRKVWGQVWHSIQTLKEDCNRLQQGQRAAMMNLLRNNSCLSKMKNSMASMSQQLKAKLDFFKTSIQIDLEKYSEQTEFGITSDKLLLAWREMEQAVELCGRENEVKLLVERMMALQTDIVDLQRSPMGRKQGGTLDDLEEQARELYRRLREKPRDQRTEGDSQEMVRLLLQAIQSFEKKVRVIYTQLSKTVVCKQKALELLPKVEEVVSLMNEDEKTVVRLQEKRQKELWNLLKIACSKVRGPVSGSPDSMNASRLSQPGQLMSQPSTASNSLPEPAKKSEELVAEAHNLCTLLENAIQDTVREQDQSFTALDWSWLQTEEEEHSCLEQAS

[2] = molecular target: T4, JAK1(JH2domain-pseudokinase) (Homo sapiens, UniProt P23458)
T4 construct: JH2domain-pseudokinase

PAK2 = PAK2 (Homo sapiens, UniProt Q13177)
RIOK3 = molecular target: T5, RIOK3 (Homo sapiens, UniProt O14730)
T5 sequence (O14730 1-519): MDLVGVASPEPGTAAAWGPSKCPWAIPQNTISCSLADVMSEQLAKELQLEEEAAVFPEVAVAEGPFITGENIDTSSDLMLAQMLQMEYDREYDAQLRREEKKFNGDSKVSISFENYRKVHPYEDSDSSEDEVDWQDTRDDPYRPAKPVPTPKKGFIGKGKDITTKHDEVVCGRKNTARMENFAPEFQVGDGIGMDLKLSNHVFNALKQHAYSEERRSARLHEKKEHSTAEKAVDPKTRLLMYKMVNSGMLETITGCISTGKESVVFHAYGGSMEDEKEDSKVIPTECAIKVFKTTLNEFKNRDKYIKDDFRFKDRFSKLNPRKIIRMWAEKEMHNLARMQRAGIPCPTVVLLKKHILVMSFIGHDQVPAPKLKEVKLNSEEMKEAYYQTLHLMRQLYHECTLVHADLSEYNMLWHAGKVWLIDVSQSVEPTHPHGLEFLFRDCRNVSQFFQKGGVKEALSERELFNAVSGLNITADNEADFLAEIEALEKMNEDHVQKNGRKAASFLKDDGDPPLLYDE

RIPK2 = RIPK2 (Homo sapiens, UniProt O43353)
p38-delta = molecular target: T6, p38-delta (Homo sapiens, UniProt O15264)
T6 construct: gene MAPK13
T6 sequence (O15264 1-365): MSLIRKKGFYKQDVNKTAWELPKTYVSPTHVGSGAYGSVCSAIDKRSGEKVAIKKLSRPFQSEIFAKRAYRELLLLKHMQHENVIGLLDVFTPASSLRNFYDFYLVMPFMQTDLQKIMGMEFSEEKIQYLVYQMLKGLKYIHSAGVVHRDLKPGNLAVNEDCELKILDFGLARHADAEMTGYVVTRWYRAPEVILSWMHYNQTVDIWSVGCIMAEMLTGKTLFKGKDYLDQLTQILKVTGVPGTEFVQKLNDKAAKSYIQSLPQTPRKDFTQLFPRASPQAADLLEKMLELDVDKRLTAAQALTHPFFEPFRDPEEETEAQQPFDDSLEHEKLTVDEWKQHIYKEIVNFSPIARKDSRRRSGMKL

[3] = read-out: Talazoparib (BMN 673) / %Ctrl @ 10000nM
[4] = read-out: Olaparib / %Ctrl @ 10000nM
[5] = read-out: Rucaparib / %Ctrl @ 10000nM, binding competition, % of control
[6] = read-out: Niraparib (MK-4827) / %Ctrl @ 10000nM

Chain of RIPK2 (O43353 whole entry): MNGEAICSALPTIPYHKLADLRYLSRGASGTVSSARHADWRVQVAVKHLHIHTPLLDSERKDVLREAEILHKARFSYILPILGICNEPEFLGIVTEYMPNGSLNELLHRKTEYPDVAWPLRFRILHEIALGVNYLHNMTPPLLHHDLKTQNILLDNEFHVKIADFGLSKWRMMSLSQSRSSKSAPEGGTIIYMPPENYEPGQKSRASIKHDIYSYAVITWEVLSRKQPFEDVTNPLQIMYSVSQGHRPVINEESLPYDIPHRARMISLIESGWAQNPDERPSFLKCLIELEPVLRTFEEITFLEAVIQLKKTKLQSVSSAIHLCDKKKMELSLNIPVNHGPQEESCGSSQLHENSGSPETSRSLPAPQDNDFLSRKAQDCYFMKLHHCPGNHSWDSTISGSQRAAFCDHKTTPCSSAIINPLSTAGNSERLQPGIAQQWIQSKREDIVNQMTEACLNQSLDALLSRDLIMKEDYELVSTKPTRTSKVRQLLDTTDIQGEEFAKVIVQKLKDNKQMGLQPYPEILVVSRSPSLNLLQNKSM
T2 sequence (Q8NI60 whole entry): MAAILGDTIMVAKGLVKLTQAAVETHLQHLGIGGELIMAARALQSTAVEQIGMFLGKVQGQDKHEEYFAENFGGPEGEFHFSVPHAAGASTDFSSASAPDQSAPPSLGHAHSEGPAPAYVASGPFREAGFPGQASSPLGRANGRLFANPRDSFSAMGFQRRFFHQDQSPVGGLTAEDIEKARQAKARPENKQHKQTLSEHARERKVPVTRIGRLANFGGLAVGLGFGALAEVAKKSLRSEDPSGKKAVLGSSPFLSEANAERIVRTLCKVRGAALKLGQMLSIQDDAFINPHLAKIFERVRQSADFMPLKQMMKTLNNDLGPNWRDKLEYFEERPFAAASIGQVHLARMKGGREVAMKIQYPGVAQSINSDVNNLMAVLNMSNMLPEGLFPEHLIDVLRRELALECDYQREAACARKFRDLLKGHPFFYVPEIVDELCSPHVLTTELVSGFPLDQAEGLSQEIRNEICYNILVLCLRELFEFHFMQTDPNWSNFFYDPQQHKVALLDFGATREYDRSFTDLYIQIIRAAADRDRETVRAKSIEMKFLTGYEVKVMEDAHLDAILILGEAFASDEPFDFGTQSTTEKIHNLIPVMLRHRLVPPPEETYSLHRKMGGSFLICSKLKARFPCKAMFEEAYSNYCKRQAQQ
Chain of EGFR(G719S) (P00533 whole entry G719S): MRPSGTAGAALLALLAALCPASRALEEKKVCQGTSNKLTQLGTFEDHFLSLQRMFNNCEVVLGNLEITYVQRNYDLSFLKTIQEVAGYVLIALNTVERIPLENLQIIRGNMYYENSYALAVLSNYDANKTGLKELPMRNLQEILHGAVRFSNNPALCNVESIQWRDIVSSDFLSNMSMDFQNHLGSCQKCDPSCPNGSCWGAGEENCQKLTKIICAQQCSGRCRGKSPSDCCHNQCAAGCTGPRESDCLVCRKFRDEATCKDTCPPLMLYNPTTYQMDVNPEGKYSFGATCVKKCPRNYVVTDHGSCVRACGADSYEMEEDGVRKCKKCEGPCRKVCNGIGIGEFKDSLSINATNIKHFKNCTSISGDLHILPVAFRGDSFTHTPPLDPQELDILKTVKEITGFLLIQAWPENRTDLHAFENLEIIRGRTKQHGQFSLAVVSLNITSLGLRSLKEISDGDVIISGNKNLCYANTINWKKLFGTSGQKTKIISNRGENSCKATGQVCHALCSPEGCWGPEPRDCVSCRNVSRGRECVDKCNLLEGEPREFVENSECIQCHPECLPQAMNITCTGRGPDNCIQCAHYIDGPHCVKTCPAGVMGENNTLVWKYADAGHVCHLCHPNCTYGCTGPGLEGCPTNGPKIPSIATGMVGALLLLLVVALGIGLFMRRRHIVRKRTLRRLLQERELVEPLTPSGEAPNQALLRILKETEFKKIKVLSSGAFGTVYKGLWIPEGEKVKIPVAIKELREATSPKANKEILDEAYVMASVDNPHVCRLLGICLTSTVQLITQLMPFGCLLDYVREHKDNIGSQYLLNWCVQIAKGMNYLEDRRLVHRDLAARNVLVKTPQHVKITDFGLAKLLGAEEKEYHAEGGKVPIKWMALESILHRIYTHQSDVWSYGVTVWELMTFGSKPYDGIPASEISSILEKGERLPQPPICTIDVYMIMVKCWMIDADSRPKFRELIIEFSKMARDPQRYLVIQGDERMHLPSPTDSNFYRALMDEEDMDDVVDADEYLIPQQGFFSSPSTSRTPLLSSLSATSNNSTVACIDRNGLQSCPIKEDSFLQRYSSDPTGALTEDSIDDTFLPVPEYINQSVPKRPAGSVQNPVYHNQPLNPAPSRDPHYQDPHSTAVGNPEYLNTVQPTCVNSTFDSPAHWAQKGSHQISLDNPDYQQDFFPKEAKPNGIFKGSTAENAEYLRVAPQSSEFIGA
Chain of BRAF(V600E) (P15056 whole entry V600E): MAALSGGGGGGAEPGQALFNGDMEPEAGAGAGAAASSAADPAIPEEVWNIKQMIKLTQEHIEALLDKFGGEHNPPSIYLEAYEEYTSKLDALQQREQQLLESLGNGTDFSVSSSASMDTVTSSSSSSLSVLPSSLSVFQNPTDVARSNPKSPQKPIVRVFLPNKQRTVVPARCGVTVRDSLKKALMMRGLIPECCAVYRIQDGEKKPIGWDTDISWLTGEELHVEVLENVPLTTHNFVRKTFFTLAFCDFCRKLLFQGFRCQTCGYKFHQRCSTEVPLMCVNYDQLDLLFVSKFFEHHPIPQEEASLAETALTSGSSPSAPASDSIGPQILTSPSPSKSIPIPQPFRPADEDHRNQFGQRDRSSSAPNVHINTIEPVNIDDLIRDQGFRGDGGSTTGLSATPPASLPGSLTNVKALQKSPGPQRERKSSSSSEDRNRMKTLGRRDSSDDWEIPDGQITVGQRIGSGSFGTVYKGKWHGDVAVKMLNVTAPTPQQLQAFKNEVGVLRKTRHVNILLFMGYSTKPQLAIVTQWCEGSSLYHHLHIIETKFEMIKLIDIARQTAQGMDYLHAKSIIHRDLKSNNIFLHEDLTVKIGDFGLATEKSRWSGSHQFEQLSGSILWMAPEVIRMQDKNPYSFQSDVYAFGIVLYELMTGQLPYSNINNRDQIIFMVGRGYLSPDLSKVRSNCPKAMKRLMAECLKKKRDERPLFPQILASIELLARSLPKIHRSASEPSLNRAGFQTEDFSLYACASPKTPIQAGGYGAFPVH
Chain of PAK2 (Q13177 whole entry): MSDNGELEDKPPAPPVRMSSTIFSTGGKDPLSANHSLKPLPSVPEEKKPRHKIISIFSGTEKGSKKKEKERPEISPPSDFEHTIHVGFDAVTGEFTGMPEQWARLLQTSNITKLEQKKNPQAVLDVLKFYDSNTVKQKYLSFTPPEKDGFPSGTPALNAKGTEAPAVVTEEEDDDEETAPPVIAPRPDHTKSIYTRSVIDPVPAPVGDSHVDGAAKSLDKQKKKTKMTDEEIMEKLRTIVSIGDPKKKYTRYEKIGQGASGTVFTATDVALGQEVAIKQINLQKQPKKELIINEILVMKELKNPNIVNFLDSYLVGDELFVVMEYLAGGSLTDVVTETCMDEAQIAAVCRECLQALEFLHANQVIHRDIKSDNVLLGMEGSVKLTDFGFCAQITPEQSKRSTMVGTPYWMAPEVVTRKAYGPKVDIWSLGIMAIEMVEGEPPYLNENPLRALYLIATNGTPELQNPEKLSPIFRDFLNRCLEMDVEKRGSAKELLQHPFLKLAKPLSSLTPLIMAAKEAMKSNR
T4 sequence (P23458 whole entry): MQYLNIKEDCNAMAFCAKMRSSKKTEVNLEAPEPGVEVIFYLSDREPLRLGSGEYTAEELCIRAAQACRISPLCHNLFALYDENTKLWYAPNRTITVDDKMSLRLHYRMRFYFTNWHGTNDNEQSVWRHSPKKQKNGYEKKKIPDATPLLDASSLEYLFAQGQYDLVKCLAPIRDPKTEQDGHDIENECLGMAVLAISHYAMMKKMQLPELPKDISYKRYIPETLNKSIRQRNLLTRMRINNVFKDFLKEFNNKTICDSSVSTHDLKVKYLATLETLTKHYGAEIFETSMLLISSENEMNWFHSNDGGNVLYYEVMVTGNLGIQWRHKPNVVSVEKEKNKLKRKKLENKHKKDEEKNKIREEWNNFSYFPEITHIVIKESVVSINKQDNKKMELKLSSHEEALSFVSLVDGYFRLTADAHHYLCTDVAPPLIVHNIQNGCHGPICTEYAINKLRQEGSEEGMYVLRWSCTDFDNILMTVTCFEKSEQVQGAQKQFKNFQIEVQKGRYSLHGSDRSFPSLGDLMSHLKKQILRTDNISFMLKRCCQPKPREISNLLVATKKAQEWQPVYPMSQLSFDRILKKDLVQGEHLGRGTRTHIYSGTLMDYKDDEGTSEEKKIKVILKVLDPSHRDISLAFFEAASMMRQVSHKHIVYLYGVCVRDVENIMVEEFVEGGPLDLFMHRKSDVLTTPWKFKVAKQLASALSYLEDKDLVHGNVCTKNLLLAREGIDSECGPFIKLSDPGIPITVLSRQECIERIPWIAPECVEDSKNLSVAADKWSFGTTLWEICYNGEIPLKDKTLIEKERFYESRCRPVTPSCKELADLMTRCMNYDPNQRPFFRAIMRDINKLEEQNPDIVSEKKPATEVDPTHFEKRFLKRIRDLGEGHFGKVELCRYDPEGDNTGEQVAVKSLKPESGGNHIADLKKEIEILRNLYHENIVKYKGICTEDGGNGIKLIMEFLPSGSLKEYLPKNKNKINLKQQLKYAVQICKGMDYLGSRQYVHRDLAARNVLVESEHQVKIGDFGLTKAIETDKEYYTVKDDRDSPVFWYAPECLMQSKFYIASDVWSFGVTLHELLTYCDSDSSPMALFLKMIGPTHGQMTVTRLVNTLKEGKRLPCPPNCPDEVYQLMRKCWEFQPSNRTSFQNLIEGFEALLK

Cn1ncnc1[C@H]1c2n[nH]c(=O)c3cc(F)cc(c23)N[C@@H]1c1ccc(F)cc1 [Talazoparib]
percent of control binding at 10 µM [1, 3]: 98% | percent of control binding at 10 µM (ADCK3; [3]): 100% | percent of control binding at 10 µM (BRAF(V600E); [3]): 68% | percent of control binding at 10 µM (EGFR(G719S); [3]): 99% | percent of control binding at 10 µM (IKK-beta; [3]): 95% | percent of control binding at 10 µM [2, 3]: 73% | percent of control binding at 10 µM (PAK2; [3]): 84% | percent of control binding at 10 µM (RIOK3; [3]): 100% | percent of control binding at 10 µM (RIPK2; [3]): 100% | percent of control binding at 10 µM (p38-delta; [3]): 98%

O=C(c1cc(Cc2n[nH]c(=O)c3ccccc23)ccc1F)N1CCN(C(=O)C2CC2)CC1 [Olaparib]
percent of control binding at 10 µM [1, 4]: 91% | percent of control binding at 10 µM (ADCK3; [4]): 99% | percent of control binding at 10 µM (BRAF(V600E); [4]): 87% | percent of control binding at 10 µM (EGFR(G719S); [4]): 94% | percent of control binding at 10 µM (IKK-beta; [4]): 72% | percent of control binding at 10 µM [2, 4]: 91% | percent of control binding at 10 µM (PAK2; [4]): 92% | percent of control binding at 10 µM (RIOK3; [4]): 100% | percent of control binding at 10 µM (RIPK2; [4]): 93% | percent of control binding at 10 µM (p38-delta; [4]): 84%

CNCc1ccc(-c2[nH]c3cc(F)cc4c3c2CCNC4=O)cc1 [Rucaparib]
percent of control binding at 10 µM [1, 5]: 75% | percent of control binding at 10 µM (ADCK3; [5]): 69% | percent of control binding at 10 µM (BRAF(V600E); [5]): 73% | percent of control binding at 10 µM (EGFR(G719S); [5]): 89% | percent of control binding at 10 µM (IKK-beta; [5]): 35% | percent of control binding at 10 µM [2, 5]: 0.8% | percent of control binding at 10 µM (PAK2; [5]): 31% | percent of control binding at 10 µM (RIOK3; [5]): 85% | percent of control binding at 10 µM (RIPK2; [5]): 88% | percent of control binding at 10 µM (p38-delta; [5]): 100%

NC(=O)c1cccc2cn(-c3ccc([C@@H]4CCCNC4)cc3)nc12 [Niraparib]
percent of control binding at 10 µM [1, 6]: 100% | percent of control binding at 10 µM (ADCK3; [6]): 57% | percent of control binding at 10 µM (BRAF(V600E); [6]): 100% | percent of control binding at 10 µM (EGFR(G719S); [6]): 74% | percent of control binding at 10 µM (IKK-beta; [6]): 100% | percent of control binding at 10 µM (PAK2; [6]): 45% | percent of control binding at 10 µM (RIOK3; [6]): 95% | percent of control binding at 10 µM (RIPK2; [6]): 78% | percent of control binding at 10 µM (p38-delta; [6]): 82%
